Test results from US20240174639A1, “PYRIDINE DERIVATIVES USEFUL AS HCN2 MODULATORS” (King's College London, priority 2021, published 2024).
Structures can show the parent of a compound that is named as a salt.

Experiments:
Format in all cases: cell-based
HCN2 [1] = target: T1, HCN2 (Homo sapiens, UniProt Q9UL51); assay: HCN2 assay using the Sophion Qube (Example 50B); conditions: Sophion Qube protocol (SQ)
T1 sequence (Q9UL51 1-889): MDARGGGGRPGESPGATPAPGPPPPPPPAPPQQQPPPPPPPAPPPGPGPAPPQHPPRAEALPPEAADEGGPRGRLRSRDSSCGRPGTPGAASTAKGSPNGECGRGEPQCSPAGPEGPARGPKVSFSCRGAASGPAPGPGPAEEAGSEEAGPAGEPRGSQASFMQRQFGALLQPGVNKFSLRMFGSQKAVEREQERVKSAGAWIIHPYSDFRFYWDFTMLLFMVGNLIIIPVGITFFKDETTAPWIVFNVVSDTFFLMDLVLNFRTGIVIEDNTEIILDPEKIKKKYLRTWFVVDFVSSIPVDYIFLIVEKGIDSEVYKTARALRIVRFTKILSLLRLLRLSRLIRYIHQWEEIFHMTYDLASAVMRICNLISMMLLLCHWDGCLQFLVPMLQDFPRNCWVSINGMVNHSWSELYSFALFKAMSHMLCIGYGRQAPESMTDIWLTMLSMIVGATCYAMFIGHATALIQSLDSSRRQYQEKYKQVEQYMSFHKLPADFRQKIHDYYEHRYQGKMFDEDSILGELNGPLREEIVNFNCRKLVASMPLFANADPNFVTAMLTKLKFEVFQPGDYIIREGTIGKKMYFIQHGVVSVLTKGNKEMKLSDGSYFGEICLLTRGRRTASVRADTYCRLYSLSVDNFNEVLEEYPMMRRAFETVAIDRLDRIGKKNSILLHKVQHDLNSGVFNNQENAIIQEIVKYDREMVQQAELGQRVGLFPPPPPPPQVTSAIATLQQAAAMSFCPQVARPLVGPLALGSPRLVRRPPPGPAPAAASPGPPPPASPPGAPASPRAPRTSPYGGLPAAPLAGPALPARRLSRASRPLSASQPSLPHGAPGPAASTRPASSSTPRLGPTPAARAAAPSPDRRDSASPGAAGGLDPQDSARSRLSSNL
Procedure: Solutions for recording HCN currents were:
For HCN1 and HCN2 the cells were held at −30 mV and then stepped to −110 mV for 2 seconds before stepping back to −30 mV, this represents 1 experimental sweep. This voltage protocol was applied every 20 seconds for the duration of the experiment. Both the vehicle (0.3% DMSO) and full block (3 mM CsCl) addition periods were applied for 10 experimental sweeps each. The compound addition period was applied for 30 sweeps.
The currents evoked by the step to −110 mV (HCN1 and HCN2) or −130 mV (HCN4) were measured for the analysis of the percentage inhibition by test compounds. The current amplitudes were measured by subtracting metric A from metric B (see FIG. 2) with inhibition calculated by normalising to the vehicle addition (0.3% DMSO) and full inhibition by 3 mM CsCl in the same well.
In total, compound was applied to the well for 600 seconds.

HCN4 [2] = target: T2, HCN4 (Homo sapiens, UniProt Q9Y3Q4); assay: HCN4 assay using the Sophion Qube (Example 50B); conditions: Sophion Qube protocol (SQ)
T2 sequence (Q9Y3Q4 1-1203): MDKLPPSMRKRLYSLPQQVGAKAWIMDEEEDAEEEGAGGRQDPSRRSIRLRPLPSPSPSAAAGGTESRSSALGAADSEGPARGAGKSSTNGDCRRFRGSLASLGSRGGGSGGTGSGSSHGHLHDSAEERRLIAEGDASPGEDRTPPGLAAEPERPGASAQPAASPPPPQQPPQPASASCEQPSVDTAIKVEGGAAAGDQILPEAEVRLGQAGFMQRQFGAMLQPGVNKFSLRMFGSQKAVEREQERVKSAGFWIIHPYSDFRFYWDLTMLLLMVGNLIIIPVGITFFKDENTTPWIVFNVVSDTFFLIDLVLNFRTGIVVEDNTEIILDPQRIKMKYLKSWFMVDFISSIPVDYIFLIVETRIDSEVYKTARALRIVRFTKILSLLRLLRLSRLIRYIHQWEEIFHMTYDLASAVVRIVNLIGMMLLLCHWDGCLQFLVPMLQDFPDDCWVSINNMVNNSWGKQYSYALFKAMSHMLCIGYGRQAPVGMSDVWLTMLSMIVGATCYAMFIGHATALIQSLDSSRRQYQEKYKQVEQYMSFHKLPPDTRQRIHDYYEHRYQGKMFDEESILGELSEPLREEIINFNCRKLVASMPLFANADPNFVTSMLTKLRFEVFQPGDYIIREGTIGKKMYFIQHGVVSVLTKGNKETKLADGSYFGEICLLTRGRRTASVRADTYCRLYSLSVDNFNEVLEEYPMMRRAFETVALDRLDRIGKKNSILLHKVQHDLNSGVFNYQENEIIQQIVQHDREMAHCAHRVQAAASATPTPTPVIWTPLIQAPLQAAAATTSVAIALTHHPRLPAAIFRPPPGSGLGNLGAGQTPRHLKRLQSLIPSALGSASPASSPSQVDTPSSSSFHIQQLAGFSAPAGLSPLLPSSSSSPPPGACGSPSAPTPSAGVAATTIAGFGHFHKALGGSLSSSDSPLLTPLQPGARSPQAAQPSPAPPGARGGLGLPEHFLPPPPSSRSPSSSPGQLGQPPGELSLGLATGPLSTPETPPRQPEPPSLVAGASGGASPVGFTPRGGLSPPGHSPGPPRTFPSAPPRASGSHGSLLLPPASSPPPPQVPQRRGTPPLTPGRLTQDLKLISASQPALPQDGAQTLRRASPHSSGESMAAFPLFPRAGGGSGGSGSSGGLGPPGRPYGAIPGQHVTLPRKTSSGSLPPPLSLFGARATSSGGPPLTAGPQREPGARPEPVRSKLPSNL
Procedure: Solutions for recording HCN currents were: [table] For HCN4, the cells were held at −30 mV and then stepped to −130 mV for 4 seconds before stepping back to −30 mV, this represents 1 experimental sweep. This voltage protocol was applied every 20 seconds for the duration of the experiment. Both the vehicle (0.3% DMSO) and full block (3 mM CsCl) addition periods were applied for 10 experimental sweeps each. The compound addition period was applied for 30 sweeps. The currents evoked by the step to −110 mV (HCN1 and HCN2) or −130 mV (HCN4) were measured for the analysis of the percentage inhibition by test compounds. The current amplitudes were measured by subtracting metric A from metric B (see FIG. 2) with inhibition calculated by normalising to the vehicle addition (0.3% DMSO) and full inhibition by 3 mM CsCl in the same well. […] In total, compound was applied to the well for 600 seconds.

HCN2 [3] = target: T1, HCN2; assay: HCN2 assay using PatchXpress 7000A (Example 50A); conditions: PatchXpress protocol (PX)
Text: (§1) Solutions for recording HON currents were:
For HCN1 and HCN2, the pulse protocol involved stepping from a holding potential of −30 mV to −110 mV (see FIG. 1A) for 2 seconds to evoke the current. The membrane voltage was then stepped back to −30 mV for a further 8 seconds. This sequence was evoked repeatedly every 10 seconds throughout the experiment, starting prior to drug (Control A) and during cumulative additions of 5 increasing compound concentrations, then finally a 100% inhibiting concentration of cesium chloride (CsCl, 3 mM).
(§2) The peak inward current measured at the end of the pulse to −110 mV (HCN1 and HCN2) or −130 mV (HCN4) was measured and any leak current subtracted to calculate the HCN current. The HCN current amplitude was measured after each control or compound addition and normalized to the control amplitude (Control A).
(§3) All experiments were performed at room temperature (approximately 22° C.).
(§4) Each test compound concentration was applied to the cell for seven (7) minutes, at which point the next cumulative concentration was applied. 3 mM CsCl was applied to each cell for 2 minutes at the end of each experiment (Control B) to determine 100% inhibition level of the HCN current.

HCN4 [4] = target: T2, HCN4; assay: HCN4 assay using PatchXpress 7000A (Example 50A); conditions: PatchXpress protocol (PX)
Procedure: as §1
For HCN4, the pulse protocol involved stepping from a holding potential of −30 mV to −130 mV (see FIG. 1B) for 4 seconds to evoke the current.
as §2, §3, §4

Structure (SMILES)	IC50 (HCN2 [1]) [µM]	IC50 (HCN4 [2]) [µM]	IC50 (HCN2 [3]) [nM]	IC50 (HCN4 [4]) [µM]
Cc1ccc(F)c(C[C@H](N)c2ncccc2-n2ncc3cc(Cl)ccc32)n1 [Example 44, (S)-1-[3-(5-Chloro-1H-indazole-1-yl)pyridine-2-yl]-2-(3-fluoro-6-methylpyridine-2-yl)-ethan-1-amine hydro-chloride]	1.5			
N[C@@H](Cc1ncccc1F)c1ncccc1-n1ncc2cc(C(F)(F)F)ccc21 [Example 40, (S)-1-[3-(5-Trifluoro-methyl-1H-indazole-1-yl)pyridine-2-yl]-2-(3-fluoropyridine-2-yl)-ethan-1-amine hydro-chloride]	11.7			
Cc1ccc(C#N)nc1C[C@H](N)c1ncccc1-n1ncc2cc(C(F)(F)F)ccc21 [Example 33, (S)-6-{2-Amino-2-[3-(5-trifluoromethyl-1H-indazol-1-yl)pyridine-2-yl]ethyl}-5-methyl-pyridine-2-carbonitrile hydrochloride]	4.9			
COc1ccc2c(cnn2-c2cccnc2[C@@H](N)Cc2nc(C#N)ccc2F)c1 [Example 37]	6.7			
Cc1ccc(F)c(C[C@H](N)c2ncccc2-n2ncc3cc(F)ccc32)n1 [Example 34, (S)-1-[3-(5-Fluoro-1H-indazole-1-yl)pyridine-2-yl]-2-(3-fluoro-6-methylpyridine-2-yl)-ethan-1-amine hydro-chloride]	4.5			
Cc1ccc(C#N)nc1C[C@H](N)c1cnccc1-n1ncc2cc(Cl)ccc21 [Example 42, (S)-6-{2-Amino-2-[4-(5-chloro-1H-indazol-1-yl)pyridine-3-yl]-ethyl}-5-methylpyr-idine-2-carbonitrile hydrochloride]	4.9			
Cc1cccc(C[C@H](N)c2ncccc2-n2ncc3ccccc32)n1 [Example 5, (S)-1-[3-(1H-indazole-1-yl)pyridine-2-yl]-2-(6-methylpyridine-2-yl)ethan-1-amine hydrochloride]			1900	> 30
N[C@@H](Cc1ccccn1)c1ccccc1-n1ncc2cnccc21 [Example 7, (S)-1-[2-(1H-pyrazolo-[4,3-c]pyridine-1-yl)-phenyl]-2-(pyridine-2-yl)ethan-1-amine hydrochloride]			7000	> 30
COc1ccc2c(cnn2-c2cccnc2[C@@H](N)Cc2ncccc2F)c1 [Example 32, (S)-2-(3-fluoropyridine-2-yl)-1-[3-(5-methoxy-1H-indazole-1-yl)-pyridine-2-yl]ethan-1-amine hydrochloride]	28.6			
CCc1ccc(F)c(C[C@H](N)c2ncccc2-n2ncc3ccccc32)n1 [Example 25, (S)-1-[3-(1H-indazole-1-yl)pyridine-2-yl]-2-(3-fluoro-6-ethylpyr-idine-2-yl)ethan-1-amine hydrochloride]			340	1.6
N[C@@H](Cc1ncccc1F)c1ncccc1-n1ncc2cc(F)ccc21 [Example 28, (S)-1-[3-(5-Fluoro-1H-indazole-1-yl)pyridine-2-yl]-2-(3-fluoropyr- -idine-2-yl)ethan-1-amine hydrochloride]			1000	> 30

Continued, values first:

IC50 (HCN2 [1]) [µM]	IC50 (HCN4 [2]) [µM]	IC50 (HCN2 [3]) [nM]	IC50 (HCN4 [4]) [µM]	Structure (SMILES)
0.6	3.4			N#Cc1ccc(F)c(C[C@H](N)c2ncccc2-n2ncc3cc(Cl)ccc32)n1 [Example 45, (S)-6-{2-Amino-2-[3-(5-chloro-1H-indazol-1-yl)pyridine-2-yl-ethyl}-5-fluoropyr-idine-2-carbonitrile hydrochloride]
0.78				N#Cc1ccc(F)c(C[C@H](N)c2ncccc2-n2ncc3cc(Br)ccc32)n1 [Example 43, (S)-6-{2-Amino-2-[3-(5-bromo-1H-indazol-1-yl)pyridine-2-yl-ethyl}-5-fluoropyr-idine-2-carbonitrile hydrochloride]
1.2				N#Cc1nc(C[C@H](N)c2ncccc2-n2ncc3cc(Br)ccc32)ccc1F [Example 46, (S)-6-{2-Amino-2-[3-(5-bromo-1H-indazol-1-yl)pyridine-2-yl]-ethyl}-3-fluoropyr-idine-2-carbonitrile hydrochloride]
		180	7.5	N#Cc1ccc(F)c(C[C@H](N)c2ncccc2-n2ncc3ccccc32)n1 [Example 23, (S)-6-{2-[3-(1H-ind-azol-1-yl)pyridine-2-yl]-2-aminoethyl}-5-fluoropyridine-2-carbonitrile formate]
		80	4.2	N[C@@H](Cc1ncccc1F)c1ncccc1-n1ncc2ccccc21 [Example 10, (S)-1-[3-(1H-indazole-1-yl)pyridine-2-yl]-2-(3-fluoropyridine-2-yl)ethan-1-amine hydrochloride]
		17300	> 30	NC(=O)c1cccc(C[C@H](N)c2ncccc2-n2ncc3ccccc32)n1 [Example 9, (S)-6-{2-[3-(1H-ind-azol-1-yl)pyridine-2-yl]-2-aminoethyl}pyridine-2-carboxamide hydro-chloride]
